According to patent US12077503B2, “Substituted cyclic amides and their use as herbicides” (FMC CORPORATION, priority 2015, dated 2024):

Legend:
Format in all cases: in vivo
[1] = test system: ivy-leaved morning glory (Ipomoea hederacea); assay: Test G Pre-Emergence Protocol; conditions: Ipomoea, pre-emergence, 312 h, evaluated after 13 days; for pest or weed control at 15.625 g/ha: 15.625 g ai/ha, read-out: Morning-glory, Ivy-leaved damage rating (100=total damage to plant; 0=no damage to plant); for pest or weed control at 62.5 g/ha: 62.5 g ai/ha, 100=total damage to plant, 0=no damage to plant, read-out: plant damage rating, Morningglory, Ivy-leaved; for pest or weed control at 250 g/ha: 250 g ai/ha, read-out: Morningglory, Ivy-leaved damage rating (100=total damage to plant; 0=no damage to plant)
Method in brief: (§1)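 One day after sowing, pots are treated with a spray of test compound formulated in acetone/water 50:50 plus 0.5% Tween 20, giving 15.625, 62.5 or 250 g/ha. Evaluation on a 0–100 damage scale follows 13 days of glasshouse growth.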

[2] = test system: giant foxtail (Setaria faberi); assay: Test G Pre-Emergence Protocol; conditions: Setaria faberi, pre-emergence, 312 h, evaluated after 13 days; for pest or weed control at 15.625 g/ha: 15.625 g ai/ha; for pest or weed control at 15.625 g/ha / pest or weed control at 250 g/ha: read-out: Foxtail, Giant damage rating (100=total damage to plant; 0=no damage to plant); for pest or weed control at 62.5 g/ha: 62.5 g ai/ha, 100=total damage to plant, 0=no damage to plant, read-out: plant damage rating, Foxtail, Giant; for pest or weed control at 250 g/ha: 250 g ai/ha
Method in brief: as §1

[3] = test system: velvetleaf (Abutilon theophrasti); assay: Test G Pre-Emergence Protocol; conditions: Abutilon theophrasti, pre-emergence, 312 h, evaluated after 13 days; for pest or weed control at 15.625 g/ha: 15.625 g ai/ha; for pest or weed control at 15.625 g/ha / pest or weed control at 250 g/ha: read-out: Velvetleaf damage rating (100=total damage to plant; 0=no damage to plant); for pest or weed control at 62.5 g/ha: 62.5 g ai/ha, 100=total damage to plant, 0=no damage to plant, read-out: plant damage rating, Velvetleaf; for pest or weed control at 250 g/ha: 250 g ai/ha
Method in brief: as §1

[4] = test system: barnyardgrass (Echinochloa crus-galli); assay: Test G Pre-Emergence Protocol; conditions: Echinochloa crus-galli, pre-emergence, 312 h, evaluated after 13 days; for pest or weed control at 15.625 g/ha: 15.625 g ai/ha, read-out: Barnyard grass damage rating (100=total damage to plant; 0=no damage to plant); for pest or weed control at 62.5 g/ha: 62.5 g ai/ha, 100=total damage to plant, 0=no damage to plant, read-out: plant damage rating, Barnyardgrass; for pest or weed control at 250 g/ha: 250 g ai/ha, read-out: Barnyardgrass damage rating (100=total damage to plant; 0=no damage to plant)
Method in brief: as §1

[5] = test system: corn (Zea mays); assay: Test G Pre-Emergence Protocol; conditions: Zea mays, pre-emergence, 312 h, evaluated after 13 days; for plant injury at 15.625 g/ha: 15.625 g ai/ha; for plant injury at 15.625 g/ha / plant injury at 250 g/ha: read-out: Corn damage rating (100=total damage to plant; 0=no damage to plant); for plant injury at 62.5 g/ha: 62.5 g ai/ha, 100=total damage to plant, 0=no damage to plant, read-out: plant damage rating, Corn; for plant injury at 250 g/ha: 250 g ai/ha
Method in brief: as §1

[6] = test system: redroot pigweed (Amaranthus retroflexus); assay: Test G Pre-Emergence Protocol; conditions: Amaranthus retroflexus, pre-emergence, 312 h, evaluated after 13 days; for pest or weed control at 15.625 g/ha: 15.625 g ai/ha; for pest or weed control at 15.625 g/ha / pest or weed control at 250 g/ha: read-out: Pigweed, Redroot damage rating (100=total damage to plant; 0=no damage to plant); for pest or weed control at 62.5 g/ha: 62.5 g ai/ha, 100=total damage to plant, 0=no damage to plant, read-out: plant damage rating, Pigweed, Redroot; for pest or weed control at 250 g/ha: 250 g ai/ha
Method in brief: as §1

[7] = test system: ivy-leaved morning glory (Ipomoea hederacea); assay: Test G Post-Emergence Protocol; conditions: Ipomoea, post-emergence, 312 h; for pest or weed control at 15.625 g/ha: 15.625 g ai/ha, evaluated after 13 days (100=total damage to plant; 0=no damage to plant), read-out: Morningglory, Ivy-leaved damage rating; for pest or weed control at 62.5 g/ha: 62.5 g ai/ha, read-out: Morningglory, Ivy-leaved damage rating (100=total damage to plant; 0=no damage to plant); for pest or weed control at 62.5 g/ha / pest or weed control at 250 g/ha: evaluated after 13 days; for pest or weed control at 250 g/ha: 250 g ai/ha, read-out: damage to plant, Morningglory, Ivy-leaved (100=total damage to plant; 0=no damage to plant)
Method in brief: (§2)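 Eight days post-sowing, plants received a spray of test compound (acetone/water 50:50, 0.5% Tween 20) at 15.625, 62.5 or 250 g/ha. Glasshouse regime thereafter: 24/16 °C, 14 h light, 65% humidity. Assessment after 13 days on a 0–100 damage scale.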

[8] = test system: giant foxtail (Setaria faberi); assay: Test G Post-Emergence Protocol; conditions: Setaria faberi, post-emergence, 312 h; for pest or weed control at 15.625 g/ha: 15.625 g ai/ha, evaluated after 13 days (100=total damage to plant; 0=no damage to plant), read-out: Foxtail, Giant damage rating; for pest or weed control at 62.5 g/ha: 62.5 g ai/ha, read-out: Foxtail, Giant damage rating (100=total damage to plant; 0=no damage to plant); for pest or weed control at 62.5 g/ha / pest or weed control at 250 g/ha: evaluated after 13 days; for pest or weed control at 250 g/ha: 250 g ai/ha, read-out: damage to plant, Foxtail, Giant (100=total damage to plant; 0=no damage to plant)
Method in brief: as §2

[9] = test system: velvetleaf (Abutilon theophrasti); assay: Test G Post-Emergence Protocol; conditions: Abutilon theophrasti, post-emergence, 312 h; for pest or weed control at 15.625 g/ha: 15.625 g ai/ha, evaluated after 13 days (100=total damage to plant; 0=no damage to plant), read-out: Velvetleaf damage rating; for pest or weed control at 62.5 g/ha: 62.5 g ai/ha, read-out: Velvetleaf damage rating (100=total damage to plant; 0=no damage to plant); for pest or weed control at 62.5 g/ha / pest or weed control at 250 g/ha: evaluated after 13 days; for pest or weed control at 250 g/ha: 250 g ai/ha, read-out: damage to plant, Velvetleaf (100=total damage to plant; 0=no damage to plant)
Method in brief: as §2

[10] = test system: barnyardgrass (Echinochloa crus-galli); assay: Test G Post-Emergence Protocol; conditions: Echinochloa crus-galli, post-emergence, 312 h; for pest or weed control at 15.625 g/ha: 15.625 g ai/ha, evaluated after 13 days (100=total damage to plant; 0=no damage to plant), read-out: Barnyardgrass damage rating; for pest or weed control at 62.5 g/ha: 62.5 g ai/ha, read-out: Barnyardgrass damage rating (100=total damage to plant; 0=no damage to plant); for pest or weed control at 62.5 g/ha / pest or weed control at 250 g/ha: evaluated after 13 days; for pest or weed control at 250 g/ha: 250 g ai/ha, read-out: damage to plant, Barnyardgrass (100=total damage to plant; 0=no damage to plant)
Method in brief: as §2

[11] = test system: corn (Zea mays); assay: Test G Post-Emergence Protocol; conditions: Zea mays, post-emergence, 312 h; for plant injury at 15.625 g/ha: 15.625 g ai/ha, evaluated after 13 days (100=total damage to plant; 0=no damage to plant), read-out: Corn damage rating; for plant injury at 62.5 g/ha: 62.5 g ai/ha, read-out: Corn damage rating (100=total damage to plant; 0=no damage to plant); for plant injury at 62.5 g/ha / plant injury at 250 g/ha: evaluated after 13 days; for plant injury at 250 g/ha: 250 g ai/ha, read-out: damage to plant, Corn (100=total damage to plant; 0=no damage to plant)
Method in brief: as §2

[12] = test system: redroot pigweed (Amaranthus retroflexus); assay: Test G Post-Emergence Protocol; conditions: Amaranthus retroflexus, post-emergence, 312 h; for pest or weed control at 15.625 g/ha: 15.625 g ai/ha, evaluated after 13 days (100=total damage to plant; 0=no damage to plant), read-out: Pigweed, Redroot damage rating; for pest or weed control at 62.5 g/ha: 62.5 g ai/ha, read-out: Pigweed, Redroot damage rating (100=total damage to plant; 0=no damage to plant); for pest or weed control at 62.5 g/ha / pest or weed control at 250 g/ha: evaluated after 13 days; for pest or weed control at 250 g/ha: 250 g ai/ha, read-out: damage to plant, Pigweed, Redroot (100=total damage to plant; 0=no damage to plant)
Method in brief: as §2

Structure (SMILES) | pest or weed control at 15.625 g/ha [1] | pest or weed control at 62.5 g/ha [1] | pest or weed control at 250 g/ha [1] | pest or weed control at 15.625 g/ha [2] | pest or weed control at 62.5 g/ha [2] | pest or weed control at 250 g/ha [2] | pest or weed control at 15.625 g/ha [3] | pest or weed control at 62.5 g/ha [3] | pest or weed control at 250 g/ha [3] | pest or weed control at 15.625 g/ha [4] | pest or weed control at 62.5 g/ha [4] | pest or weed control at 250 g/ha [4] | plant injury at 15.625 g/ha [5] | plant injury at 62.5 g/ha [5] | plant injury at 250 g/ha [5] | pest or weed control at 15.625 g/ha [6] | pest or weed control at 62.5 g/ha [6] | pest or weed control at 250 g/ha [6] | pest or weed control at 15.625 g/ha [7] | pest or weed control at 62.5 g/ha [7] | also measured
CN1C[C@H](c2ccc(C(F)(F)F)cc2)[C@](C)(C(=O)Nc2cccc(F)c2F)C1=O (racemic) [Compound 1406] | 0% | 0% | 0% | 0% | 0% | 0% | 0% | 0% | 0% | 0% | 0% | 0% | 0% | 0% | 0% | 0% | 0% | 0% | 0% | 10% | pest or weed control at 250 g/ha [7]: 0%; pest or weed control at 15.625 g/ha [8]: 0%; pest or weed control at 62.5 g/ha [8]: 0%; pest or weed control at 250 g/ha [8]: 0%; pest or weed control at 15.625 g/ha [9]: 0%; pest or weed control at 62.5 g/ha [9]: 20%; pest or weed control at 250 g/ha [9]: 20%; pest or weed control at 15.625 g/ha [10]: 0%; pest or weed control at 62.5 g/ha [10]: 0%; pest or weed control at 250 g/ha [10]: 20%; plant injury at 15.625 g/ha [11]: 20%; plant injury at 62.5 g/ha [11]: 0%; plant injury at 250 g/ha [11]: 10%; pest or weed control at 15.625 g/ha [12]: 0%; pest or weed control at 62.5 g/ha [12]: 40%; pest or weed control at 250 g/ha [12]: 20%
CN1C[C@H](c2cccc(C(C)(C)C#N)c2)[C@@H](C(=O)Nc2ccccc2F)C1=O (racemic) [Compound 1407] | 0% | 0% | 0% | 50% | 80% | 90% | 0% | 0% | 0% | 10% | 80% | 90% | 0% | 0% | 0% | 0% | 0% | 0% | 0% | 20% | pest or weed control at 250 g/ha [7]: 30%; pest or weed control at 15.625 g/ha [8]: 0%; pest or weed control at 62.5 g/ha [8]: 70%; pest or weed control at 250 g/ha [8]: 70%; pest or weed control at 15.625 g/ha [9]: 10%; pest or weed control at 62.5 g/ha [9]: 20%; pest or weed control at 250 g/ha [9]: 20%; pest or weed control at 15.625 g/ha [10]: 10%; pest or weed control at 62.5 g/ha [10]: 40%; pest or weed control at 250 g/ha [10]: 60%; plant injury at 15.625 g/ha [11]: 0%; plant injury at 62.5 g/ha [11]: 10%; plant injury at 250 g/ha [11]: 20%; pest or weed control at 15.625 g/ha [12]: 20%; pest or weed control at 62.5 g/ha [12]: 10%; pest or weed control at 250 g/ha [12]: 30%
CN1C[C@@H](c2cc(Cl)cc(C(F)(F)F)c2)[C@H](C(=O)Nc2ccccc2F)C1=O (racemic) [Compound 1414] | 0% | 0% | 20% | 60% | 80% | 80% | 0% | 0% | 0% | 20% | 70% | 80% | 0% | 20% | 50% | 0% | 0% | 0% | 0% | 30% | pest or weed control at 250 g/ha [7]: 30%; pest or weed control at 15.625 g/ha [8]: 70%; pest or weed control at 62.5 g/ha [8]: 70%; pest or weed control at 250 g/ha [8]: 80%; pest or weed control at 15.625 g/ha [9]: 0%; pest or weed control at 62.5 g/ha [9]: 0%; pest or weed control at 250 g/ha [9]: 0%; pest or weed control at 15.625 g/ha [10]: 50%; pest or weed control at 62.5 g/ha [10]: 50%; pest or weed control at 250 g/ha [10]: 60%; plant injury at 15.625 g/ha [11]: 20%; plant injury at 62.5 g/ha [11]: 50%; plant injury at 250 g/ha [11]: 80%; pest or weed control at 15.625 g/ha [12]: 10%; pest or weed control at 62.5 g/ha [12]: 0%; pest or weed control at 250 g/ha [12]: 30%
